Results as given in patent publication EP2257297B1, “COMPOUNDS FOR USE IN THE TREATMENT OF ACNE, SEBORRHOEA AND SEBHORROEIC DERMATITIS, OR FOR REDUCING SEBUM SECRETION” (priority 2008, dated 2009).
pIC50: −log10 of the molar value.

Biological target: T1, human MC5R (Homo sapiens, UniProt P33032)
T1 construct: purchased Perkin Elmer RBXMC5M400UA
Assay: Human MC5R radioligand binding assay ([125I] NDP-MSH displacement, hMC5R membranes)
Settings: hMC5R assay as in Example 102; compounds tested as trifluoroacetate or hydrochloride salts, or as free base
How it was run: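 Bound ligand collected by filtration on PEI-soaked GF/A filters and counted. Data fitted to a single-site competition model with fixed Hill coefficient to give EC50.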

T1 sequence (P33032 whole entry): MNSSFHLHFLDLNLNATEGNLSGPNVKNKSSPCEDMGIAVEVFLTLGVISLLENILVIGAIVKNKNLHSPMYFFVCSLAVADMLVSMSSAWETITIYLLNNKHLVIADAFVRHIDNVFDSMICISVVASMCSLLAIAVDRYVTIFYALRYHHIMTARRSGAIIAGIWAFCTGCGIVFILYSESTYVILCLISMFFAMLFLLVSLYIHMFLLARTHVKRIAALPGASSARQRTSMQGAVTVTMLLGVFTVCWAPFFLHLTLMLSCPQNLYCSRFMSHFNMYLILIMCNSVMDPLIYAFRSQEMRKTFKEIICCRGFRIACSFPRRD

NCCC[C@@H]1N[C@H](CNC(=O)c2cc(-c3ccccc3)n[nH]2)CCN(CC(c2ccccc2)c2ccccc2)C1=O [Compound 256, N-(((3S,5S)-3-(3-aminopropyl)-1-(2,2-diphenylethyl)-2-oxo-1,4-diazepan-5-yl)methyl)-3-phenyl-1H-pyrazole-5-carboxamide] and CC1=NN(c2ccc(C(=O)NC[C@@H]3CCN(CC(c4ccccc4)c4ccccc4)C(=O)[C@H](CCCN)N3)cc2)C(=O)C1 [Compound 259, N-(((3S,5S)-3-(3-aminopropyl)-1-(2,2-diphenylethyl)-2-oxo-1,4-diazepan-5-yl)methyl)-4-(3-methyl-5-oxo-4,5-dihydro-1H-pyrazol-1-yl)benzamide] cannot be ordered by pIC50: greater than 6.00 for the first, greater than 6.00 for the second.

CN(C[C@@H]1CCN(CC(c2ccccc2)c2ccccc2)C(=O)[C@H](CCCN)N1)C(=O)/C=C/c1ccc(F)cc1 [Compound 257, (E)-N-(((3S,5S)-3-(3-aminopropyl)-1-(2,2-diphenylethyl)-2-oxo-1,4-diazepan-5-yl)methyl)-3-(4-fluorophenyl)-N-methylacrylamide] and NCC[C@@H]1N[C@H](CNC(=O)/C=C/c2ccc(F)cc2)CCN(CC(c2ccccc2)c2ccccc2)C1=O [Compound 276, (E)-N-(((3S,5S)-3-(2-aminoethyl)-1-(2,2-diphenylethyl)-2-oxo-1,4-diazepan-5-yl)methyl)-3-(4-fluorophenyl)acrylamide] cannot be ordered by pIC50: greater than 5.00 for the first, greater than 7.00 for the second.

CN1[C@H](CNC(=O)/C=C/c2ccc(F)cc2)CCN(CC(c2ccccc2)c2ccccc2)C(=O)[C@@H]1CCCN [Compound 258, (E)-N-(((3S,5S)-3-(3-aminopropyl)-1-(2,2-diphenylethyl)-4-methyl-2-oxo-1,4-diazepan-5-yl)methyl)-3-(4-fluorophenyl)acrylamide] and NCCC[C@@H]1N[C@H](CNC(=O)/C=C/c2ccc(Br)cc2)CCN(CC(c2ccccc2)c2ccccc2)C1=O [Compound 260, (E)-N-(((3S,5S)-3-(3-aminopropyl)-1-(2,2-diphenylethyl)-2-oxo-1,4-diazepan-5-yl)methyl)-3-(4-bromophenyl)acrylamide] cannot be ordered by pIC50: greater than 6.00 for the first, greater than 7.00 for the second.

O=C(/C=C/c1ccc(Cl)cc1)NC[C@@H]1CCN(CC(c2ccccc2)c2ccccc2)C(=O)[C@H](CCCN2CCCCC2)N1 [Compound 262, (E)-3-(4-chlorophenyl)-N-(((3S,5S)-1-(2,2-diphenylethyl)-2-oxo-3-(3-(piperidin-1-yl)propyl)-1,4-diazepan-5-yl)methyl)acrylamide] and O=C(/C=C/c1ccc(Cl)cc1)NC[C@@H]1CCN(CC(c2ccccc2)c2ccccc2)C(=O)[C@H](CN2CCCCC2)N1 [Compound 279, (E)-3-(4-chlorophenyl)-N-(((3S,5S)-1-(2,2-diphenylethyl)-2-oxo-3-(piperidin-1-ylmethyl)-1,4-diazepan-5-yl)methyl)acrylamide] cannot be ordered by pIC50: greater than 7.00 for the first, greater than 8.00 for the second.

Cc1ccc(C(=O)NC[C@@H]2CCN(CC(c3ccccc3)c3ccccc3)C(=O)[C@H](CCCN3CCCCC3)N2)cc1C [Compound 270, N-(((3S,5S)-1-(2,2-diphenylethyl)-2-oxo-3-(3-(piperidin-1-yl)propyl)-1,4-diazepan-5-yl)methyl)-3,4-dimethylbenzamide] and O=C(NC[C@@H]1CCN(CC(c2ccccc2)c2ccccc2)C(=O)[C@H](CCCN2CCCCC2)N1)c1ccc(Cl)c(Cl)c1 [Compound 271, 3,4-dichloro-N-(((3S,5S)-1-(2,2-diphenylethyl)-2-oxo-3-(3-(piperidin-1-yl)propyl)-1,4-diazepan-5-yl)methyl)benzamide] cannot be ordered by pIC50: greater than 7.00 for the first, greater than 7.00 for the second.

NC[C@@H]1N[C@H](CNC(=O)/C=C/c2ccc(Cl)cc2)CCN(CC(c2ccccc2)c2ccccc2)C1=O [Compound 275, (E)-N-(((3S,5S)-3-(aminomethyl)-1-(2,2-diphenylethyl)-2-oxo-1,4-diazepan-5-yl)methyl)-3-(4-chlorophenyl)acrylamide] and Cc1ccc(/C=C/C(=O)NC[C@@H]2CCN(CC(c3ccccc3)c3ccccc3)C(=O)[C@H](CCN)N2)cc1 [Compound 277, (E)-N-(((3S,5S)-3-(2-aminoethyl)-1-(2,2-diphenylethyl)-2-oxo-1,4-diazepan-5-yl)methyl)-3-p-tolylacrylamide] cannot be ordered by pIC50: greater than 7.00 for the first, greater than 7.00 for the second.
